The source of these data is ChEMBL document CHEMBL1649511, “Reduction of amphotericin B-induced renal tubular apoptosis by N-acetylcysteine” (2009).

Assay type in all cases: functional
Holding throughout (design): scale not given: the % may be the effect or the level left
Holding throughout (conditions): route intraperitoneal

In test [1] the test system is Rattus norvegicus. In words: Inhibition of amphotericin B-induced renal tubular apoptosis in Sprague-Dawley rat assessed as apoptotic index at 30 mg/kg, ip BID measured post last dose.
Test [2] relates to Rattus norvegicus. In words: Inhibition of amphotericin B-induced renal tubular apoptosis in Sprague-Dawley rat assessed as apoptotic index at 120 mg/kg, ip BID measured post last dose.
The test system of test [3] is Rattus norvegicus. In words: Inhibition of amphotericin B-induced renal tubular apoptosis in Sprague-Dawley rat assessed as apoptotic index at 60 mg/kg, ip BID measured post last dose.

With `CC(=O)N[C@@H](CS)C(=O)O` [ACETYLCYSTEINE], the Activity in the test on Rattus norvegicus [1] was determined as 27.4%; in the test with Rattus norvegicus [2], 23.5%; in the test on Rattus norvegicus [3], 23.6%.
